Row | Compound | melting point
1 | CCN(CC)CCOc1ccncc1NC(=O)C1=C(O)CCn2c1nc1ccccc12.Cl | 175 to 178 °C
2 | Cl.O=C(Nc1cnccc1OCCN1CCCC1)C1=C(O)CCn2c1nc1ccccc12 | 170 to 174 °C
3 | Cl.O=C(Nc1cnccc1OCCCN1CCCC1)C1=C(O)CCn2c1nc1ccccc12 | 60 to 68 °C
4 | Cl.O=C(Nc1cnccc1OCCN1CCCCC1)C1=C(O)CCn2c1nc1ccccc12 | 225 to 230 °C
5 | Cl.O=C(Nc1ccc(OCCN2CCCC2)cc1)C1=C(O)CCn2c1nc1ccccc12 | 130 to 142 °C
6 | CN(C)CCN1C2=C(C(=O)NCc3ccccc3Cl)C(=O)CCN2c2ccccc21 | 138 to 140 °C
7 | CCNCCOc1ccc(NC(=O)C2=C(O)CCn3c2nc2ccccc23)cc1.Cl | 60 to 65 °C
8 | Cl.O=C(Nc1cnccc1OCCOCCN1CCCC1)C1=C(O)CCn2c1nc1ccccc12 | 55 to 65 °C
9 | Cc1ccc(CNC(=O)C2=C3N(CCC2=O)c2ccccc2N3CCN(C)C)cc1 | 120 to 122 °C

— patent US6451809B2 (dated 2002)
